Tests used:
hVR1 [1] = target: T1, hVR1 (Homo sapiens (Human), UniProt Q8NER1); test: FLIPR Ca2+ influx assay on CHO K1 cells transfected with the VR1 gene, capsaicin stimulus (method II); assay type: cell-based; settings: capsaicin (Cap), read-out: Ki (human being) [nM] Cap
hVR1 [2] = target: T1, hVR1; test: FLIPR assay human VR1, 45° C. stimulus; assay type: cell-based; settings: inhibition determined at 2.5 μM, read-out: IC50 (human being) 45° C. column: inhibition (as a percentage) @ 2.5 μM
From the text: The agonistic or antagonistic effect of the substances to be tested on the vanilloid receptor 1 (VR1) can also be determined using the following assay. In this assay, the influx of Ca^2+ through the channel is quantified with the aid of a Ca^2+-sensitive dye (type Fluo-4, Molecular Probes Europe BV, Leiden, the Netherlands) in a fluorescent imaging plate reader (FLIPR, Molecular Devices, Sunnyvale, USA).
Chinese hamster ovary cells (CHO K1 cells, European Collection of Cell Cultures (ECACC) United Kingdom) are stably transfected with the VR1 gene. For functional testing, these cells are plated out on poly-D-lysine-coated black 96-well plates having a clear base (BD Biosciences, Heidelberg, Germany) at a density of 25,000 cells/well. The cells are incubated overnight at 37° C. and 5% CO2 in a culture medium (Ham's F12 nutrient mixture, 10% by volume of FCS (foetal calf serum), 18 μg/ml of L-proline). The next day the cells are incubated with Fluo-4 (Fluo-4 2 μM, 0.01% by volume of Pluronic F127, Molecular Probes in HBSS (Hank's buffered saline solution), Gibco Invitrogen GmbH, Karlsruhe, Germany) for 30 minutes at 37° C. Subsequently, the plates are washed three times with HBSS buffer and after further incubation for 15 minutes at RT used for Ca^2+ measurement in a FLIPR assay. The Ca^2+-dependent fluorescence is measured before and after the addition of the substances to be tested (λex wavelength=488 nm, λem=540 nm). Quantification is carried out by measuring the highest fluorescence intensity (FC, fluorescence counts) over time.
The FLIPR protocol consists of 2 substance additions. […]
Desensitising agonists and antagonists led to suppression of the Ca^2+ influx.
Ki values for the test substances were obtained by conversion by means of the Cheng-Prusoff equation (Cheng, Prusoff; Biochem. Pharmacol. 22, 3099-3108, 1973).

T1 sequence (Q8NER1 whole entry): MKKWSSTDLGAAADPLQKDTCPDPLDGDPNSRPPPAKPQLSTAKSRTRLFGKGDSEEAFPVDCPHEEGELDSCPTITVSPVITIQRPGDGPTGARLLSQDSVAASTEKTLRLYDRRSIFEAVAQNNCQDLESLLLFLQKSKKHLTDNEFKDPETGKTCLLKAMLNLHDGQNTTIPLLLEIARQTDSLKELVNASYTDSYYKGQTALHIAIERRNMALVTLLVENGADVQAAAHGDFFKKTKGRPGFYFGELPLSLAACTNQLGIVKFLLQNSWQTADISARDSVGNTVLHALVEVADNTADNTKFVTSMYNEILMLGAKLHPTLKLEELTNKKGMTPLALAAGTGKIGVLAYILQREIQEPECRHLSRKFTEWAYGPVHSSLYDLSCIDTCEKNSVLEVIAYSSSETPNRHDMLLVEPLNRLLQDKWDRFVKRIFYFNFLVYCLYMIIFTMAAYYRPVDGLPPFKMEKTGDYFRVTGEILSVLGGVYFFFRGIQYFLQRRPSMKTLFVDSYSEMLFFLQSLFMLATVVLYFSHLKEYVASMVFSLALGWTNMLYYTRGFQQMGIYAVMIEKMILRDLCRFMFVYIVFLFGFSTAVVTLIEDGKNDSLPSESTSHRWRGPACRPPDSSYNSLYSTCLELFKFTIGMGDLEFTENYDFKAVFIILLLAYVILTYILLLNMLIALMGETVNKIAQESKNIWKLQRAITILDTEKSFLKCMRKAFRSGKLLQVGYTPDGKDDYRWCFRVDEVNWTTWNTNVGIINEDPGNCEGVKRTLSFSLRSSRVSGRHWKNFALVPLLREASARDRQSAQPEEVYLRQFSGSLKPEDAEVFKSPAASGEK

Ki (hVR1 [1]): 51.8 nM
inhibition at 2.5 µM (hVR1 [2]): 12%
SMILES: O=C(Cc1cccc(F)c1)NCc1cc(C(F)(F)F)nn1-c1cccc(Cl)c1 [Example 74, N-((1-(3-chlorophenyl)-3-(trifluoromethyl)-1H-pyrazol-5-yl)methyl)-2-(3-fluorophenyl)acetamide]

Reference: patent publication US9120756B2, “Substituted phenylureas and phenylamides as vanilloid receptor ligands” (Gruenenthal GmbH, priority 2009, dated 2015)
